According to ChEMBL document CHEMBL1201862, “PubChem BioAssay data set” (2004):
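Where inhibition never reached the appropriate level, the endpoint shown equals the highest concentration tested. Otherwise, values were interpolated linearly from a five-concentration, 48-hour dose response in 96-well plates. GI50 = concentration required for 50% inhibition of growth.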 Calls of active or inactive are those of the source. No stated cut-off is given here; in the data, active = GI50 up to about 1.1 µM and inactive = higher.

Key:
Assay in all cases: growth of human tumour cells (NCI), 48 h
OVCAR-8 = tested on: OVCAR-8
Malme-3M = tested on: Malme-3M
PC-3 = tested on: PC-3
MDA-MB-231 = tested on: MDA-MB-231
MDA-MB-435 = tested on: MDA-MB-435
DU-145 = tested on: DU-145
TK-10 = tested on: TK-10
Hs-578T = tested on: Hs-578T
RXF 393 = tested on: RXF 393
MOLT-4 = tested on: MOLT-4
LOX IMVI = tested on: LOX IMVI
ACHN = tested on: ACHN
HCT-116 = tested on: HCT-116
HL-60 = tested on: HL-60
MDA-N = tested on: MDA-N
SF-295 = tested on: SF-295
A498 = tested on: A498
OVCAR-4 = tested on: OVCAR-4
HOP-92 = tested on: HOP-92

Measured: GI50

CC(CC(=O)N1C2CC3CCC2(CS1(=O)=O)C3(C)C)[Si](C)(C)C (stereo not drawn)
inactive: OVCAR-8 > 100 µM | Malme-3M > 100 µM | PC-3 61.5 µM | MDA-MB-231 > 100 µM | MDA-MB-435 > 100 µM | DU-145 > 100 µM | TK-10 > 100 µM | Hs-578T > 100 µM | RXF 393 > 100 µM | MOLT-4 > 100 µM | LOX IMVI > 100 µM | ACHN > 100 µM | HCT-116 > 100 µM | HL-60 > 100 µM | MDA-N > 100 µM | SF-295 > 100 µM

CC(=O)N[C@@H](Cc1ccc(O)cn1)C(=O)NC1CCCCC1
inactive: A498 > 100 µM | OVCAR-8 > 100 µM | PC-3 > 100 µM | MDA-MB-231 > 100 µM | MDA-MB-435 > 100 µM | DU-145 > 100 µM | OVCAR-4 > 100 µM | TK-10 > 100 µM | Hs-578T > 100 µM | HOP-92 > 100 µM | MOLT-4 > 100 µM | LOX IMVI > 100 µM | ACHN > 100 µM | HCT-116 > 100 µM | MDA-N > 100 µM | SF-295 > 100 µM

CC1(O)CCC(C(C)(C)O)CC1 (stereo not drawn) [TERPIN]
inactive: A498 > 100 µM | OVCAR-8 > 100 µM | PC-3 > 100 µM | MDA-MB-231 > 100 µM | MDA-MB-435 > 100 µM | DU-145 > 100 µM | OVCAR-4 > 100 µM | TK-10 > 100 µM | Hs-578T > 100 µM | HOP-92 > 100 µM | MOLT-4 > 100 µM | LOX IMVI > 100 µM | ACHN > 100 µM | HCT-116 > 100 µM | HL-60 > 100 µM | MDA-N > 100 µM | SF-295 > 100 µM

Cc1ccc(S(=O)(=O)C2=Cc3ccccc3C2(O)c2ccccc2)cc1 (stereo not drawn)
inactive: A498 > 10 µM | OVCAR-8 22.8 µM | PC-3 27.4 µM | MDA-MB-231 17.7 µM | MDA-MB-435 30.8 µM | DU-145 34.8 µM | TK-10 35.3 µM | Hs-578T 22.6 µM | MOLT-4 29.2 µM | LOX IMVI 17.6 µM | ACHN 34.3 µM | HCT-116 33.3 µM | HL-60 13.2 µM | MDA-N 18.7 µM | SF-295 25.4 µM

COC1CCC(=O)N1CN(C(C)=O)c1ccc(C)cc1 (stereo not drawn)
inactive: A498 > 10 µM | OVCAR-8 > 100 µM | PC-3 > 100 µM | MDA-MB-231 > 100 µM | MDA-MB-435 > 100 µM | DU-145 > 100 µM | OVCAR-4 > 100 µM | TK-10 > 100 µM | Hs-578T > 100 µM | RXF 393 > 100 µM | MOLT-4 > 100 µM | LOX IMVI > 100 µM | ACHN > 100 µM | HCT-116 > 100 µM | MDA-N > 100 µM | SF-295 > 100 µM

N#C/C(N)=C(\C#N)NC(=O)C(=O)N/C(C#N)=C(\N)C#N
inactive: A498 > 100 µM | OVCAR-8 > 100 µM | Malme-3M 59.6 µM | PC-3 > 100 µM | MDA-MB-231 > 100 µM | MDA-MB-435 > 100 µM | DU-145 > 100 µM | OVCAR-4 > 100 µM | TK-10 > 100 µM | Hs-578T > 100 µM | RXF 393 9.38 µM | HOP-92 > 100 µM | MOLT-4 63.1 µM | LOX IMVI > 100 µM | ACHN > 100 µM | HCT-116 > 100 µM | MDA-N > 100 µM | SF-295 57.8 µM

COC(=O)C1Cc2cc3c(cc2C1=O)CCC3 (stereo not drawn)
inactive: A498 > 100 µM | OVCAR-8 > 100 µM | Malme-3M > 100 µM | PC-3 > 100 µM | MDA-MB-231 > 100 µM | MDA-MB-435 > 100 µM | DU-145 > 100 µM | OVCAR-4 42.1 µM | TK-10 > 100 µM | Hs-578T > 100 µM | MOLT-4 68.7 µM | LOX IMVI > 100 µM | ACHN > 100 µM | HCT-116 > 100 µM | HL-60 > 100 µM | MDA-N > 100 µM | SF-295 > 100 µM

COC(=O)[C@H](Cc1ccccc1)NC(=O)N(CCC#N)CCCCN(CCC#N)C(=O)N[C@@H](Cc1ccccc1)C(=O)OC
inactive: A498 > 100 µM | OVCAR-8 > 100 µM | Malme-3M > 100 µM | PC-3 > 100 µM | MDA-MB-231 > 100 µM | MDA-MB-435 > 100 µM | DU-145 > 100 µM | OVCAR-4 > 100 µM | TK-10 > 100 µM | Hs-578T > 100 µM | RXF 393 > 58.1 µM | HOP-92 > 100 µM | MOLT-4 > 100 µM | LOX IMVI > 100 µM | ACHN > 100 µM | HCT-116 > 100 µM | MDA-N > 100 µM | SF-295 > 100 µM
